# Patent publication US6949652B2, “Crystalline forms of 3-isopropyl-6-[4-(2,5-difluoro-phenyl)-oxazol-5-yl]-[1,2,4]triazolo-[4,3-A]pyridine” (Pfizer, Inc., priority 2002, dated 2005)
# pIC50: −log10 of the molar value.
# How the values were obtained:
# MAPKAP kinase-2 = assay: MAPKAP Kinase-2 assay (LPS-stimulated monocytes, immunoprecipitation, kinase activity); type: cell-based; conditions: human monocytes, LPS 30 minutes, MAPKAP kinase-2 immunoprecipitate; read-out: IC50 in the MAPKAP in vitro assay
# Procedure: Mononuclear cells are collected from heparinized human blood as detailed above. The washed cells are seeded into 6-well cluster plates at a density of 1×10^7 cells/well (in 2 ml of Medium). The plates are incubated at 37° C. in a 5% CO2 environment for 2 hours to allow adherence of the monocytes, after which time media supernatants containing non-adherent cells are removed by aspiration and 2 ml of fresh medium are added to each well. Plates are incubated overnight at 37° C. in a 5% CO2 environment.
# Media are removed by aspiration. The attached cells are rinsed twice with fresh Medium, then 2 ml of D-MEM medium containing 10% heat inactivated FBS are added to each well. 3-isopropyl-6-[4-(2,5-difluoro-phenyl)-oxazol-5-yl]-[1,2,4]triazolo-[4,3-a]pyridine is prepared as a 30 mM stock solution in DMSO and diluted to 1250, 250, 50, 10, 2, and 0.4 μM in D-MEM containing 1% DMSO and 10% FBS. To individual wells of the monocyte cultures, 20 μl of these 3-isopropyl-6-[4-(2,5-difluoro-phenyl)-oxazol-5-yl]-[1,2,4]triazolo-[4,3-a]pyridine dilutions are added resulting in final 3-isopropyl-6-[4-(2,5-difluoro-phenyl)-oxazol-5-yl]-[1,2,4]triazolo-[4,3-a]pyridine concentrations of 12.5, 2.5, 0.5, 0.1, 0.02 and 0.004 μM. After a 10 minute preincubation period, 20 μl of a 10 μg/ml LPS solution are added to each well and the plates are incubated at 37° C. for 30 minutes. […]
# TNFα = assay: In vivo inhibition of TNFα (LPS-injected rats, serum TNFα ELISA); conditions: Rattus norvegicus, ip, drug 1 hour before LPS i.p., serum TNFα 90 minutes later
# Procedure: In Vivo Inhibition of TNFα Rats were weighed and dosed with vehicle (0.5% methyl cellulose, Sigma) or drug. One hour later, animals were injected i.p. with LPS (50 ug/rat, Sigma L-4130). Ninety minutes later, animals were sacrificed by asphyxiation with CO2 and bled by cardiac puncture. Blood was collected in Vaccutainer tubes and spun for 20 minutes at 3000 rpm. Serum was assayed for TNFα levels using an ELISA (R&D Systems).
# [1] = test system: TNF-alpha production by human LPS-treated monocytes; assay: Inhibition of TNF-alpha production by human LPS-treated monocytes; type: cell-based; conditions: Monocyte, human mononuclear cells, 4 hours, TNF-α ELISA, read-out: IC50 in the TNFα in vitro assay
# Procedure: Inhibition of TNF-alpha Production by Human LPS-treated Monocytes
# Mononuclear cells are isolated from heparinized blood (1.5 ml of 1000 units/ml heparin for injection, Elkins-Sinn, Inc. added to each 50 ml sample) using Accuspin System-Histopaque-1077 tubes (Sigma A-7054). Thirty-five milliliters of whole blood are added to each tube and the tubes are centrifuged at 2100 rpm for 20 minutes in a Beckman GS-6KR centrifuge with the brake off at room temperature. The mononuclear cells which collect at the interface are removed, diluted with Macrophage serum free medium (Gibco-BRL) (Medium) to achieve a final volume of 50 ml, and collected by centrifugation for 10 minutes. The supernatant is discarded and the cell pellet is washed 2 times with 50 ml of Medium. A sample of the suspended cells is taken before the second wash for counting. Based on this count, the washed cells are diluted with Medium containing 1% FBS to a final concentration of 2.7×10^6 cells/ml and 75 μl of the cell suspension is added to each well of a 96 well plate.
# 3-isopropyl-6-[4-(2,5-difluoro-phenyl)-oxazol-5-yl]-[1,2,4]triazolo-[4,3-a]pyridine may be tested at final concentrations from 2 μM to 0.016 μM, but may be tested at other concentrations, depending on desire. […]
# Supernatants are analyzed for TNF-α content using R&D ELISA. […]
# The amount of TNF-α immunoreactivity in the samples is calculated as follows: […]
# [2] = Solid-state stability / dehydration of hydrate crystal forms; type: physicochemical; conditions: for Dehydration temperature range: solid crystal form
# Procedure: Differential Scanning Calorimetry (DSC) analysis was carried out on either TA Instruments DSC2920 or TA instrument Q1000 or a Mettler DSC 821, calibrated with indium. DSC sample was prepared by weighing 2-4 mg of material in an aluminum pan with a pinhole. The sample was heated under nitrogen, at a rate of 5° C. or 10° C. per minute from 3 to 300 C.
pIC50 (MAPKAP kinase-2),pIC50 [1],Dehydration temperature range [2],Form conversion upon dehydration [2],SMILES,ED50 (TNFα)
> 5.00,> 5.00,–,–,"CC(C)c1nnc2ccc(-c3ocnc3-c3cc(F)ccc3F)cn12 [6-[4-(2,5-Difluoro-phenyl)-oxazol-5-yl]-3-isopropyl-[1,2,4]triazolo-[4,3-a]pyridine]",< 50 mg/kg
–,–,30 to 70 °C,–,"CC(C)c1nnc2ccc(-c3ocnc3-c3cc(F)ccc3F)cn12 [Form D, 3-Isopropyl-6-[4-(2,5-difluoro-phenyl)-oxazol-5-yl]-[1,2,4]triazolo-[4,3-a]pyridine form D]",–
–,–,75 to 100 °C,converts to Form B upon dehydration,"CC(C)c1nnc2ccc(-c3ocnc3-c3cc(F)ccc3F)cn12 [Form E, 3-Isopropyl-6-[4-(2,5-difluoro-phenyl)-oxazol-5-yl]-[1,2,4]triazolo-[4,3-a]pyridine form E]",–
